# According to patent US20230405157A1, “MELANOCORTIN TYPE 2 RECEPTOR (MC2R) TARGETED THERAPEUTICS AND USES THEREOF” (Radionetics Oncology, Inc., priority 2022, published 2023):
# Biological target: T1, human MC2R (Homo sapiens, UniProt Q01718)
# T1 construct: host or cells: CellSensor CRE-bla CHO-K1 cells
# Assay: Inhibition of binding of ACTH in human MC2R-containing membranes (SPA radioligand competition)
# Conditions: competition with 0.2 nM [125I]-TYR23]-ACTH (1-39), membranes of CHO-K1 cells expressing hMC2 receptor; read-out: hMC2 membrane binding
# Experimental: Crude membrane fractions are prepared from CellSensor CRE-blaCHO-K1 cells stably expressing functional hMC2 receptor (ThermoFisher #K1483). […] Cells were collected and washed in Dulbecco's phosphate buffered saline (Corning #21-031-CV). […] The membrane fraction is separated from cell debris and collected in membrane preparation buffer, flash frozen in liquid nitrogen and stored at −80° C. […] Briefly, membranes from cells expressing the human MC2R were incubated with SPA beads (PerkinElmer #RPNQ0001) in binding assay buffer [50 mM HEPES (Biopioneer #C0113), 5 mM MgCl2 (Sigma #M8266), 1 mM CaCl2) (Fisher Scientific #BP510), 0.2% BSA (Fisher Scientific #BP1600), and protease inhibitors (Pierce #A32963); pH 7.4]. […] All data manipulations to determine the Kivalues were performed using GraphPad v8 (GraphPad, San Diego CA)
# T1 sequence (Q01718 whole entry): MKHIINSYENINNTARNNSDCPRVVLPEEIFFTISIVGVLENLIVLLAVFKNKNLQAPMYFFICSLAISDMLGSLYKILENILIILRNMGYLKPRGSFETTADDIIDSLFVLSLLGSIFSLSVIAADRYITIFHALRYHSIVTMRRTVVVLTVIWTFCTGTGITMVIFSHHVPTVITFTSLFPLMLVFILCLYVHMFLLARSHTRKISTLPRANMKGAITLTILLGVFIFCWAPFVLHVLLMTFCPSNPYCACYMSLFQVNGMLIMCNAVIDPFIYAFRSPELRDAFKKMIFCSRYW
# T1 sequence (Q8TCY5 whole entry partner): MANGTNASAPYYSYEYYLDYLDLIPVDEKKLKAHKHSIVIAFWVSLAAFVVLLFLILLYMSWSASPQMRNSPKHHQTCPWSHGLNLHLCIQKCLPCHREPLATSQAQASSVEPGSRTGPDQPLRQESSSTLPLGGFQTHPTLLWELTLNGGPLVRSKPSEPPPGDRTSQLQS
row,Ki [nM],Compound
1,< 10,"CCOc1ccc(C(=O)N2CCN(c3ccc(-c4cccnc4OCC)nc3CNCCCCCCCCCCCCCCCNC(=O)CN3CCN(CC(=O)O)CCN(CC(=O)O)CCN(CC(=O)O)CC3)[C@H](CC)C2)c(C(F)(F)F)n1 [Compound 14, (R)-2,2′,2″-(10-(2-((15-(((2′-ethoxy-5-(4-(6-ethoxy-2-(trifluoromethyl)nicotinoyl)-2-ethylpiperazin-1-yl)-[2,3′-bipyridin]-6-yl)methyl)amino)pentadecyl)amino)-2-oxoethyl)-1,4,7,10-tetraazacyclododecane-1,4,7-triyl)triacetic acid]"
2,< 10,"CCOc1ccc(C(=O)N2CCN(c3ccc(-c4ccccc4OCC)nc3CNCCNCCCOCCOCCOCCOCCNC(=O)CN3CCN(CC(=O)O)CCN(CC(=O)O)CCN(CC(=O)O)CC3)[C@H](CC)C2)c(C(F)(F)F)c1 [Compound 17, (R)-2,2′,2″-(10-(1-(3-(4-(4-ethoxy-2-(trifluoromethyl)benzoyl)-2-ethylpiperazin-1-yl)-6-(2-ethoxyphenyl)pyridin-2-yl)-22-oxo-9,12,15,18-tetraoxa-2,5,21-triazatricosan-23-yl)-1,4,7,10-tetraazacyclododecane-1,4,7-triyl)triacetic acid]"
3,< 10,"CCOc1ccccc1-c1ncc(C2(C(=O)N[C@@H]3CCN(CCOCCOCCOCCOCCNC(=O)CN4CCN(CC(=O)O)CCN(CC(=O)O)CCN(CC(=O)O)CC4)C3)CCN(c3ccc(C(F)(F)F)cc3C#N)CC2)cc1F [Compound 9, (R)-2,2′,2″-(10-(17-(3-(1-(2-cyano-4-(trifluoromethyl)phenyl)-4-(6-(2-ethoxy-phenyl)-5-fluoropyridin-3-yl)piperidine-4-carboxamido)pyrrolidin-1-yl)-2-oxo-6,9,12,15-tetra-oxa-3-azaheptadecyl)-1,4,7,10-tetraazacyclododecane-1,4,7-triyl)triacetic acid]"
4,< 10,CCOc1ccc(C(=O)N2CCN(c3ccc(-c4cccnc4OCC)nc3CNCCCN(CCOCCOCCOCCNC(=O)CN3CCN(CC(=O)O)CCN(CC(=O)O)CCN(CC(=O)O)CC3)CCOCCOCCOCCNC(=O)CN3CCN(CC(=O)O)CCN(CC(=O)O)CCN(CC(=O)O)CC3)[C@H](CC)C2)c(C(F)(F)F)n1 [^115In complex of Compound 4]
5,< 10,CCOc1ccc(C(=O)N2CCN(c3ccc(-c4cccnc4OCC)nc3CNCCCNC(=O)[C@@H](N)CC(=O)NCCOCCNC(=O)CN3CCN(CC(=O)O)CCN(CC(=O)O)CCN(CC(=O)O)CC3)[C@H](CC)C2)c(C(F)(F)F)n1 [^115In complex of Compound 5]
6,< 10,"CCOc1ccccc1-c1ccc(N2CCN(C(=O)c3ccc(Cl)cc3C(F)F)C[C@H]2CC)c(C(=O)NC2CCN(CCCOc3cc(NCCOCCNC(=O)CN4CCN(CC(=O)O)CCN(CC(=O)O)CCN(CC(=O)O)CC4)cc(C(=O)O)c3)C2)n1 (stereo in doubt) [Compound 13, 2,2′,2″-(10-(2-((2-(2-((3-carboxy-5-(3-((R)-3-(3-((R)-4-(4-chloro-2-(difluoromethyl)benzoyl)-2-ethylpiperazin-1-yl)-6-(2-ethoxyphenyl)picolinamido)pyrrolidin-1-yl)propoxy)phenyl)amino)ethoxy)ethyl)amino)-2-oxoethyl)-1,4,7,10-tetraazacyclododecane-1,4,7-triyl)triacetic acid]"
7,< 10,"CCOc1ccc(C(=O)N2CCN(c3ccc(-c4cccnc4OCC)nc3CNCCCNC(=O)C[C@H](O)C[C@H](O)CCNC(=O)CN3CCN(CC(=O)O)CCN(CC(=O)O)CCN(CC(=O)O)CC3)[C@H](CC)C2)c(C(F)(F)F)n1 [Compound 6, 2,2′,2″-(10-(2-(((3R,5R)-7-((3-(((2′-ethoxy-5-((R)-4-(6-ethoxy-2-(trifluoromethyl)-nicotinoyl)-2-ethylpiperazin-1-yl)-[2,3′-bipyridin]-6-yl)methyl)amino)propyl)-amino)-3,5-dihydroxy-7-oxoheptyl)amino)-2-oxoethyl)-1,4,7,10-tetraazacyclododecane-1,4,7-triyl)triacetic acid]"
8,< 10,CCOc1ccc(C(=O)N2CCN(c3ccc(-c4ccccc4OCC)nc3CNCCCOc3cc(NCCOCCNC(=O)CN4CCN(CC(=O)O)CCN(CC(=O)O)CCN(CC(=O)O)CC4)cc(C(=O)O)c3)[C@H](CC)C2)c(C(F)(F)F)c1 [^115In complex of Compound 3]
9,< 10,CCOc1ccc(C(=O)N2CCN(c3ccc(-c4cccnc4OCC)nc3CNCCCC[C@@H](NC(=O)CN3CCN(CC(=O)O)CCN(CC(=O)O)CCN(CC(=O)O)CC3)C(=O)O)[C@H](CC)C2)c(C(F)(F)F)n1 [^115In complex of Compound 2]
10,< 10,"(R)-2,2′,2″-(10-(1-(3-(4-(4-ethoxy-2-(trifluoromethyl)benzoyl)-2-ethylpiperazin-1-yl)-6-(2-ethoxyphenyl)pyridin-2-yl)-19-oxo-6,9,12,15-tetraoxa-2,18-diazaicosan-20-yl)-1,4,7,10-tetraazacyclododecane-1,4,7-triyl)triacetic acid [Compound 11]"
11,< 10,"CCOc1ccc(C(=O)N2CCN(c3ccc(-c4cccnc4OCC)nc3CNCCCOCCOCCOCCOCCNC(=O)CCC(C(=O)O)N3CCN(CC(=O)O)CCN(CC(=O)O)CCN(CC(=O)O)CC3)[C@H](CC)C2)c(C(F)(F)F)n1 (stereo partly drawn) [Compound 18, 2,2′,2″-(10-(22-carboxy-1-(2′-ethoxy-5-((R)-4-(6-ethoxy-2-(trifluoromethyl)-nicotinoyl)-2-ethylpiperazin-1-yl)-(2,3′-bipyridin]-6-yl)-19-oxo-6,9,12,15-tetraoxa-2,18-diazadocosan-22-yl)-1,4,7,10-tetraazacyclododecane-1,4,7-triyl)triacetic acid]"

row,Compound,Ki [nM]
1,"CCOc1ccc(C(=O)N2CCN(c3ccc(-c4cccnc4OCC)cc3CNCCNCCCOCCOCCOCCOCCNC(=O)CN3CCN(CC(=O)O)CCN(CC(=O)O)CCN(CC(=O)O)CC3)[C@H](CC)C2)c(C(F)(F)F)n1 [Compound 15, (R)-2,2′,2″-(10-(1-(2-(4-(6-ethoxy-2-(trifluoromethyl)nicotinoyl)-2-ethylpiperazin-1-yl)-5-(2-ethoxypyridin-3-yl)phenyl)-22-oxo-9,12,15,18-tetraoxa-2,5,21-triazatricosan-23-yl)-1,4,7,10-tetraazacyclododecane-1,4,7-triyl)triacetic acid]",< 10
2,"CCOc1ccc(C(=O)N2CCN(c3ccc(-c4cccnc4OCC)cc3CNCCNCCCOCCOCCOCCOCCNC(=O)CN3CCN(CC(=O)[O-])CCN(CC(=O)[O-])CCN(CC(=O)[O-])CC3)[C@H](CC)C2)c(C(F)(F)F)n1.[Ga+3] [^69/71Ga complex of Compoud 15, gallium (R)-2,2′,2″-(10-(1-(2-(4-(6-ethoxy-2-(trifluoromethyl)nicotinoyl)-2-ethylpiperazin-1-yl)-5-(2-ethoxypyridin-3-yl)phenyl)-22-oxo-9,12,15,18-tetraoxa-2,5,21-triazatricosan-23-yl)-1,4,7,10-tetraazacyclododecane-1,4,7-triyl)triacetate]",< 10
3,"2,2′,2″-(10-((R)-8-amino-1-(2′-ethoxy-5-((R)-4-(6-ethoxy-2-(trifluoromethyl)-nicotinoyl)-2-ethylpiperazin-1-yl)-[2,3′-bipyridin]-6-yl)-7,10,18-trioxo-14-oxa-2,6,11,17-tetra-azanonadecan-19-yl)-1,4,7,10-tetraazacyclododecane-1,4,7-triyl)triacetic acid [Compound 10]",< 10
